Tests used:
Experiment in all cases: competition with DK-01 photoaffinity labelling, in-gel fluorescence
Type in all cases: biochemical
Settings in all cases: 200 uM inhibitor preincubated, 10 uM DK-01; leaf extract; band assigned by knockout
[1] = molecular target: T1, APM1 (Arabidopsis thaliana, UniProt Q8VZH2)
T1 construct: assigned by mutant lines
T1 sequence (Q8VZH2 1-879): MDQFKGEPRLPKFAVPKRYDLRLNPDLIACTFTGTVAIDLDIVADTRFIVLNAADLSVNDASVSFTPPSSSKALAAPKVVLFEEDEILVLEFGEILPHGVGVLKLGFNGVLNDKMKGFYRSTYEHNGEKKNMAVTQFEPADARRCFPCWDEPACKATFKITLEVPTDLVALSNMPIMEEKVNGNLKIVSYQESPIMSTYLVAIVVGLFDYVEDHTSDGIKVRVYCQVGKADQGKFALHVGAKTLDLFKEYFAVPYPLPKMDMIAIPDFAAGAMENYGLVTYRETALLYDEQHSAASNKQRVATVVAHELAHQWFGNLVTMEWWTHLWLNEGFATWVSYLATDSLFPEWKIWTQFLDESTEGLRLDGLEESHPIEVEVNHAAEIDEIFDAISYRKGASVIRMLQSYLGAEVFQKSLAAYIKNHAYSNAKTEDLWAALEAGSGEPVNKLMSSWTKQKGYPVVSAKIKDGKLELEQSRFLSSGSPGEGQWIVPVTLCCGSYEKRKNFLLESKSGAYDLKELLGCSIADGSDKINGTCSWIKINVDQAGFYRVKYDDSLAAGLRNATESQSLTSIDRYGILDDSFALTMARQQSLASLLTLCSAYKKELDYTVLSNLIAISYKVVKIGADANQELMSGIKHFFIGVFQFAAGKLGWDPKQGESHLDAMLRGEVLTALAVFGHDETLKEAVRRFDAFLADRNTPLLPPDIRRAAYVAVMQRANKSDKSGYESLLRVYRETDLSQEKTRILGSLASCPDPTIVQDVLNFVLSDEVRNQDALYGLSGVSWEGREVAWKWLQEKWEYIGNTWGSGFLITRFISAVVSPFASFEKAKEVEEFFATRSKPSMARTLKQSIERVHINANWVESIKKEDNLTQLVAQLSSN

[2] = molecular target: T2, PREP1 (Arabidopsis thaliana, UniProt Q9LJL3)
T2 construct: assigned by knockout lines; locus printed At3g18170, probably a misprint for At3g19170
T2 sequence (Q9LJL3 86-1080): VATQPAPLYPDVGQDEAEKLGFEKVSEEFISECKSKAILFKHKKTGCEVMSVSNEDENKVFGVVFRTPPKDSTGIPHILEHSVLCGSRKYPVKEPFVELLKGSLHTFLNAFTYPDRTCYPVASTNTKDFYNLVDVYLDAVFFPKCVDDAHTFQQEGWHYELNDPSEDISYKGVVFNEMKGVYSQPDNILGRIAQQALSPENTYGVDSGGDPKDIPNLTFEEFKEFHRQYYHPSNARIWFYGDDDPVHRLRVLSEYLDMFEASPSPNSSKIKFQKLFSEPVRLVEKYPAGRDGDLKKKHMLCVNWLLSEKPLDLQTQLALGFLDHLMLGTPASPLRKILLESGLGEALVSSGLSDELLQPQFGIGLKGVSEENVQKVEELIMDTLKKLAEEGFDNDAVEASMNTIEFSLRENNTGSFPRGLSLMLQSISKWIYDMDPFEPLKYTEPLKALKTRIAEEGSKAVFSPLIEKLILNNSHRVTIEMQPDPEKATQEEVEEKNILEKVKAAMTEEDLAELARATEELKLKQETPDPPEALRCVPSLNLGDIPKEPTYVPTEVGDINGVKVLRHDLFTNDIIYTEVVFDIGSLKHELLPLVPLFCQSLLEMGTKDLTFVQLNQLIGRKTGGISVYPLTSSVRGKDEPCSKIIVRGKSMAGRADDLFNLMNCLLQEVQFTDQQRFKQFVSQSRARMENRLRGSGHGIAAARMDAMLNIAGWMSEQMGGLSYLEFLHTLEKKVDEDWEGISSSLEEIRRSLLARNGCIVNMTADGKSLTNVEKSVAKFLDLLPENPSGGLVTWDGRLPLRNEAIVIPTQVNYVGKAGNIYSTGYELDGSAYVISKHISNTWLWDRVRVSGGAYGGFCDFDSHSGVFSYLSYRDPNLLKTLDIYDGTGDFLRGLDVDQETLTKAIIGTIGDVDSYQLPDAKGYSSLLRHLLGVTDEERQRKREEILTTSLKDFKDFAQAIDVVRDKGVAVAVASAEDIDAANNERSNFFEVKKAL

[3] = molecular target: T3, TOP1 (Arabidopsis thaliana, UniProt Q94AM1)
T3 construct: gene OOP; assigned by knockout lines
T3 sequence (Q94AM1 83-791): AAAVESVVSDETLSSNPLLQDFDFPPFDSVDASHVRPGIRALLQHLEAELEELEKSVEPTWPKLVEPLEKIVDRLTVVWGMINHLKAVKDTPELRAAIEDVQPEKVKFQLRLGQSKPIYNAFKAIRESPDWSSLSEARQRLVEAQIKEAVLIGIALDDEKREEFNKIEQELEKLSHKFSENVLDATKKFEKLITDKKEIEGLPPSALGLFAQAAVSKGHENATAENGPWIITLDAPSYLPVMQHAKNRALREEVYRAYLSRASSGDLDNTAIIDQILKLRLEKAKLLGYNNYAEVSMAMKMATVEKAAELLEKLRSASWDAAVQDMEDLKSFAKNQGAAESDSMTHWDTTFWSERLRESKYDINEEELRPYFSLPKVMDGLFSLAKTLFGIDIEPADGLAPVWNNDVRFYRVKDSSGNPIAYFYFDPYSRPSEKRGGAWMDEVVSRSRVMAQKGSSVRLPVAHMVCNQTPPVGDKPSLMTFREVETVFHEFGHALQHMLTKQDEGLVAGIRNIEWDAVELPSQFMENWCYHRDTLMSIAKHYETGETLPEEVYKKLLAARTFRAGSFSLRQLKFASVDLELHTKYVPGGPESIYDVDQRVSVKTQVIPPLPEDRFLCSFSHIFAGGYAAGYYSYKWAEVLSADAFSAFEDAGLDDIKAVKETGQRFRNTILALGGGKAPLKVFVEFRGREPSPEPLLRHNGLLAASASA

competition with DK-01 photoaffinity labelling, in-gel fluorescence [2]	Structure (SMILES)	competition with DK-01 photoaffinity labelling, in-gel fluorescence [1]	competition with DK-01 photoaffinity labelling, in-gel fluorescence [3]
–	CNC(=O)[C@@H](NC(=O)[C@H](CC(C)C)[C@H](O)C(=O)NO)C(C)(C)C [marimastat]	APM1 is marimastat/actinonin‐sensitive and active at pH5 and above	–
PREP1 is actinonin/ilomastat‐sensitive	CNC(=O)[C@H](Cc1c[nH]c2ccccc12)NC(=O)[C@@H](CC(=O)NO)CC(C)C [ilomastat]	–	–
PREP1 is actinonin/ilomastat‐sensitive	CCCCC[C@H](CC(=O)NO)C(=O)N[C@H](C(=O)N1CCC[C@H]1CO)C(C)C [actinonin]	APM1 is marimastat/actinonin‐sensitive and active at pH5 and above	TOP1 labelling is actinonin‐sensitive and requires a neutral pH

— publication PMC9322406, “Broad‐range metalloprotease profiling in plants uncovers immunity provided by defence‐related metalloenzyme” (The New Phytologist, 2022)
